# Assay results: patent US9951064B2, “Azaindazole compounds as inhibitors of T790M containing EGFR mutants” (Genentech, Inc., priority 2013, dated 2018)
# Where two headings read alike, the source gives them in different places.
# Columns and labels:
# [1] = molecular target: T1, phosphor-EGFR in H1975(L585R/T790M) mutant EGFR expressing cells (Homo sapiens, UniProt P00533, L858R/T790M); assay: H1975 pEGFR MSD cellular assay; type: cell-based; conditions: NCI-H1975 cells, serum starved, 1 hour compound incubation, pEGFR Tyr1068 MSD; read-out: HI975 pEGFR EC50
# T1 construct: host or cells: NCI-H1975
# Method in brief: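 Phospho-EGFR read by MSD electrochemiluminescence: capture with anti-pEGFR antibody (overnight, 4° C), detection with SULFO-TAG anti-total EGFR (1 hour, room temperature). Before lysis, H1975 cells starved of serum overnight got compound for 1 hour at 37° C, 0.5% DMSO final. EC50 via four-parameter logistic regression of percent inhibition.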
# [2] = test system: H1975 (EGFR T790M/L858R) cell proliferation; assay: H1975 proliferation assay (Cell Titer-Glo); type: cell-based; conditions: NCI-H1975 cells, 72 hour incubation, read-out: H1975 antiproliferative EC50
# Protocol: H1975 Proliferation Assays
# All cell culture reagents were purchased from Invitrogen/Gibco. Cells are cultured at 37° C. at 5% CO2 and split as recommended by ATCC.
# EGFR T790M L858R = molecular target: T2, EGFR T790M L858R (Homo sapiens, UniProt P00533, L858R/T790M); assay: EGFR T790M L858R biochemical assay (Caliper mobility shift); conditions: 5 μM ATP; apparent Ki (Morrison fit) converted by Cheng-Prusoff, Km of ATP 1.3 μM
# T2 construct: purchased Life Technologies PV4879
# Method in brief: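 Caliper mobility-shift read-out, electrophoretic separation of substrate from product, after a 30-minute kinase reaction at 22 °C. EDTA at 80 mM terminates each reaction.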
# EGFR del746-750 T790M = molecular target: T3, EGFR del746-750 T790M (Homo sapiens, UniProt P00533, DEL746-750/T790M); assay: EGFR del746-750 T790M biochemical assay (Caliper mobility shift); conditions: 5 μM ATP; apparent Ki (Morrison fit) converted by Cheng-Prusoff, Km of ATP 2.1 μM; read-out: EGFR(T790M/d746-750) Ki
# T3 construct: purchased Carna Biosciences 08-528
# Method in brief: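 Caliper mobility-shift read-out, with product electrophoretically resolved from substrate and measured. Reactions were quenched with 80 mM EDTA after 30 min at 22 °C.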
# T3 sequence (P00533 with tags, fused parts or gaps DEL746-750/T790M limits assumed): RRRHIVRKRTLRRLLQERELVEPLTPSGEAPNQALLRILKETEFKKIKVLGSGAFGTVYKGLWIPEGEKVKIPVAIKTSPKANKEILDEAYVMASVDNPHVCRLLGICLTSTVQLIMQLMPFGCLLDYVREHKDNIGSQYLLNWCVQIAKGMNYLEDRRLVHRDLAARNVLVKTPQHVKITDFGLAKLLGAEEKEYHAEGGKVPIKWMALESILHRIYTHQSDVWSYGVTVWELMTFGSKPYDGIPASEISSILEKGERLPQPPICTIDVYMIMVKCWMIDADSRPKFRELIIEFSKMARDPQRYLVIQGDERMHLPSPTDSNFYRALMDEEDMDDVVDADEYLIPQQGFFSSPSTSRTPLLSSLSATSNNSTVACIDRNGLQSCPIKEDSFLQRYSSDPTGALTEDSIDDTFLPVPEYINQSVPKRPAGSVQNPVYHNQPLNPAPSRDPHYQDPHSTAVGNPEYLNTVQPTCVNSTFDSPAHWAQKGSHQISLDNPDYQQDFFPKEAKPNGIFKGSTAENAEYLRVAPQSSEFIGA
# T2 sequence (P00533 25-1210 T790M/L858R): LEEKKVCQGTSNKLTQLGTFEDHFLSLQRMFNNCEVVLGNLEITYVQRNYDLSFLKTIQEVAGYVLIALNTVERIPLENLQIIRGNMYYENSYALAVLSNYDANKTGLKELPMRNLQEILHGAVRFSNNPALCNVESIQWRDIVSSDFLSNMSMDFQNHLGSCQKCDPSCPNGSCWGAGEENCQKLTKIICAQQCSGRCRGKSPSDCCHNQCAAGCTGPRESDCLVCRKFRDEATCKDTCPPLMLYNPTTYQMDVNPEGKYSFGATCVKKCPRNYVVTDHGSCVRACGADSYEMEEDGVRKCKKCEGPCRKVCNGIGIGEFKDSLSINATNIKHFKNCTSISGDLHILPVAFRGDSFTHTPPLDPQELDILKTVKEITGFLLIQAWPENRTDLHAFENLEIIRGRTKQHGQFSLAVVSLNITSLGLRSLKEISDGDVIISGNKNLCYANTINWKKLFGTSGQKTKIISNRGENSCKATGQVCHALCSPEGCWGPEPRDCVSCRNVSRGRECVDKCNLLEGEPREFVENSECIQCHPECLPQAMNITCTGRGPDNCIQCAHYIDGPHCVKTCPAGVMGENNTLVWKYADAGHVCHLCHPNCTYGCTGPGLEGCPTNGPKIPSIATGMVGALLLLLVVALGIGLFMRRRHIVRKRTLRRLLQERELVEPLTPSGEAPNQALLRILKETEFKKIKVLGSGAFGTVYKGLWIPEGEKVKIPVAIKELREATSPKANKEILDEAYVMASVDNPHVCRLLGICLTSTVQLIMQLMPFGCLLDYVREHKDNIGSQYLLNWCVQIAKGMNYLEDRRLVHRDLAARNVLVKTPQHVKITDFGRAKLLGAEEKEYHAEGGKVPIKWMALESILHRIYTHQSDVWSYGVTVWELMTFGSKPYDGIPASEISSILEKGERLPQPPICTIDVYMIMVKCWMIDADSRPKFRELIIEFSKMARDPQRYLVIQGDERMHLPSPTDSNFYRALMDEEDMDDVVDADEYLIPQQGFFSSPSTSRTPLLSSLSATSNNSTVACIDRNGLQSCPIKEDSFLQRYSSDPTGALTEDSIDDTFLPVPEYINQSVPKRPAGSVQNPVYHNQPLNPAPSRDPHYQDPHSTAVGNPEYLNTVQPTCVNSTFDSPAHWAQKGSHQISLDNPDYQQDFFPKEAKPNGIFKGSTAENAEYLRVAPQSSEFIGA
# T1 sequence (P00533 25-1210 T790M/L858R): as above
Compound,EC50 [1],EC50 [2],Ki (EGFR T790M L858R),Ki (EGFR del746-750 T790M),"EC50 ([2]; Homo sapiens, NCI-H1975, 72 h)"
"COC1CCN(c2nccc(Nc3cc4c(cn3)c(N3CC5(COC5)C3)nn4C(C)C)n2)CC1 [Example 2, 1-Isopropyl-N-(2-(4-methoxypiperdin-1-yl)pyrimidin-4-yl)-3-(2-oxa-6-azaspiro[3.3]heptan-6-yl)-1H-pyrazolo[4,3-c]pyridine-6-amine]",81.7 nM,,2.1 nM,9.7 nM,388 nM
"CC(C)n1nc(N2CC3(COC3)C2)c2cnc(Nc3ccnc(N4CCC(O)C(C)(C)C4)n3)cc21 (centres unmarked) [Example 3, 1-(4-((1-Isopropyl-3-(2-oxa-6-azaspiro[3.3]heptan-6-yl)-1H-pyrazolo[4,3-c]pyridin-6-yl)amino)pyrimidin-2-yl)-3,3-dimethylpiperidin-4-ol]",38.6 nM,,1.4 nM,1.6 nM,159 nM
"CC(C)n1nc(NCCO)c2cnc(Nc3ccnc(-c4cnn(S(=O)(=O)C5CC5)c4)n3)cc21 [Example 6, 2-((6-((2-(1-(Cyclopropylsulfonyl)-1H-pyrazol-4-yl)pyrimidin-4-yl)amino)-1-isopropyl-1H-pyrazolo[4,3-c]pyridin-3-yl)amino)ethanol]",73.8 nM,,0.9 nM,1.2 nM,877 nM
"CC(C)n1nc(N2CCCC2)c2cnc(Nc3ccnc(N4CCC(O)C(C)(C)C4)n3)cc21 (centres unmarked) [Example 8, 1-(4-((1-Isopropyl-3-(pyrrolidin-1-yl)-1H-pyrazolo[4,3-c]pyridin-6-yl)amino)pyrimidin-2-yl)-3,3-dimethylpiperidin-4-ol]",30.3 nM,,1.3 nM,1.3 nM,499 nM
"Cc1cn[nH]c1-c1nn(C(C)C)c2cc(Nc3ccnc(N4CCC(O)C(C)(C)C4)n3)ncc12 (centres unmarked) [Example 10, 1-(4-((1-Isopropyl-3-(4-methyl-1H-pyrazol-5-yl)-1H-pyrazolo[4,3-c]pyridin-6-yl)amino)pyrimidin-2-yl)-3,3-dimethylpiperidin-4-ol]",349 nM,,7.5 nM,32.4 nM,1710 nM
"COC1CCN(c2nccc(Nc3cc4c(cn3)c(N3CCCC3)nn4C(C)C)n2)CC1 [Example 15, 1-Isopropyl-N-(2-(4-methoxypiperidin-1-yl)pyrimidin-4-yl)-3-(pyrrolidin-1-yl)-1H-pyrazolo[4,3-c]pyridin-6-amine]",26.6 nM,,1.2 nM,2.8 nM,380 nM
"CCS(=O)(=O)n1cc(-c2nccc(Nc3cc4c(cn3)c(N3CC(C(=O)N(C)C)C3)nn4C(C)C)n2)cn1 [Example 17, 1-(6-(2-(1-(Ethylsulfonyl)-1H-pyrazol-4-yl)pyrimidin-4-ylamino)-1-isopropyl-1H-pyrazolo[4,3-c]pyridin-3-yl)-N, N-dimethylazetidine-3-carboxamide]",19.2 nM,,0.7 nM,0.8 nM,236 nM
"CC(C)n1nc(N2CCC(O)C2)c2cnc(Nc3ccnc(-c4cnn(S(=O)(=O)C5CC5)c4)n3)cc21 (centres unmarked) [Example 18, 1-(6-(2-(1-(Cyclopropylsulfonyl)-1H-pyrazol-4-yl)pyrimidin-4-ylamino)-1-isopropyl-1H-pyrazolo[4,3-c]pyridin-3-yl) pyrrolidin-3-ol]",7.5 nM,,0.8 nM,0.6 nM,201 nM

# More lines, now with the values ahead:
EC50 [1],EC50 [2],Ki (EGFR T790M L858R),Ki (EGFR del746-750 T790M),"EC50 ([2]; Homo sapiens, NCI-H1975, 72 h)",Compound
12.8 nM,149 nM,1.2 nM,2.7 nM,,"CCC(C)n1nc(N2CC3(COC3)C2)c2cnc(Nc3ccnc(N4CC[C@@H](O)[C@@H](F)C4)n3)cc21 (single isomer, unassigned) [Example 197, (3S,4R)-1-(4-((1-((R*)-sec-Butyl)-3-(2-oxa-6-azaspiro[3.3]heptan-6-yl)-1H-pyrazolo[4,3-c]pyridin-6-yl)amino)pyrimidin-2-yl)-3-fluoropiperidin-4-ol]"
16.4 nM,348 nM,1.5 nM,3.1 nM,,"CCC(C)n1nc(N2CC3(COC3)C2)c2cnc(Nc3ccnc(N4CC[C@@H](O)[C@@H](F)C4)n3)cc21 (single isomer, unassigned) [Example 198, (3S,4R)-1-(4-((1-((S*)-sec-Butyl)-3-(2-oxa-6-azaspiro[3.3]heptan-6-yl)-1H-pyrazolo[4,3-c]pyridin-6-yl)amino)pyrimidin-2-yl)-3-fluoropiperidin-4-ol]"
230 nM,,1.5 nM,1.5 nM,630 nM,"CC(C)n1nc(N2CCC(O)C2=O)c2cnc(Nc3ccnc(-c4cnn(S(=O)(=O)C5CC5)c4)n3)cc21 (stereo in doubt) [Example 199, (S)-1-(6-((2-(1-(Cyclopropylsulfonyl)-1H-pyrazol-4-yl)pyrimidin-4-yl)amino)-1-isopropyl-1H-pyrazolo[4,3-c]pyridin-3-yl)-3-hydroxypyrrolidin-2-one]"
2060 nM,,9.2 nM,9.8 nM,> 10000 nM,"COC1CCN(c2nccc(Nc3cc4c(cn3)c(N)nn4C[C@H]3CC[C@H](N)CC3)n2)CC1 [Example 24, 1-(4-(Aminocyclohexyl)methyl)-N^6-[2-(4-methoxypiperidin-1-yl)-pyrimidin-4-yl]-1H-pyrazolo[4,3-c]pyridine-3,6-diamine]"
38.3 nM,,1 nM,2.5 nM,138 nM,"CCC(C)n1nc(N2CCNC2=O)c2cnc(Nc3ccnc(-c4cnn(S(=O)(=O)C5CC5)c4)n3)cc21 (centres unmarked) [Example 25, 1-(1-(sec-Butyl)-6-((2-(1-(cyclopropylsulfonyl)-1H-pyrazol-4-yl)pyrimidin-4-yl)amino)-1H-pyrazolo[4,3-c]pyridin-3-yl)imidazolidin-2-one]"
33.5 nM,,0.7 nM,0.5 nM,167 nM,"CC(C)n1nc(NC2COC2)c2cnc(Nc3ccnc(-c4cnn(S(=O)(=O)C5CC5)c4)n3)cc21 [Example 35, N^6-(2-(1-(cyclopropylsulfonyl)-1H-pyrazol-4-yl)pyrimidin-4-yl)-1-isopropyl-N^3-(oxetan-3-yl)-1H-pyrazolo[4,3-c]pyridine-3,6-diamine]"
91.7 nM,,1.4 nM,0.8 nM,1120 nM,"CC(C)n1nc(N2CC(O)C2)c2cnc(Nc3ccnc(-c4cnn(S(=O)(=O)C5CC5)c4)n3)cc21 [Example 37, 1-(6-(2-(1-(cyclopropylsulfonyl)-1H-pyrazol-4-yl)pyrimidin-4-ylamino)-1-isopropyl-1H-pyrazolo[4,3-c]pyridin-3-yl)azetidin-3-ol]"
40.8 nM,,1.1 nM,2.4 nM,272 nM,"CCS(=O)(=O)n1cc(-c2nccc(Nc3cc4c(cn3)c(NC3CCOC3)nn4C(C)C)n2)cn1 (centres unmarked) [Example 38, N6-(2-(1-(ethylsulfonyl)-1H-pyrazol-4-yl)pyrimidin-4-yl)-1-isopropyl-N3-(tetrahydrofuran-3-yl)-1H-pyrazolo[4,3-c]pyridine-3,6-diamine]"
53.6 nM,,1.2 nM,0.9 nM,241 nM,"CC(C)n1nc(N2CCOC(CO)C2)c2cnc(Nc3ccnc(-c4cnn(S(=O)(=O)C5CC5)c4)n3)cc21 (centres unmarked) [Example 53, (4-(6-(2-(1-(cyclopropylsulfonyl)-1H-pyrazol-4-yl)pyrimidin-4-ylamino)-1-isopropyl-1H-pyrazolo[4,3-c]pyridin-3-yl)morpholin-2-yl)methanol]"
